Measured values reported in PubChem BioAssay AID624452 (Sanford-Burnham Center for Chemical Genomics, 2012).

Test system: human liver microsomes, compound remaining, LC-MS
Test: human microsomal compound turnover – biochemical, with and without NADPH, LC-MS, set 2, ADME assay (AID 624452);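 note: compound left measured after 60 min microsomal incubation at 37 °C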
Conditions: at 1 µM; for percent remaining without NADPH: measured here: stability without NADPH control

SMILES	percent remaining with NADPH	percent remaining without NADPH
O=[N+]([O-])c1ccc(CN2CCOCCOCCN(Cc3ccc([N+](=O)[O-])cc3)CCOCC2)cc1	0.31%	72.8%
COc1cccc(-c2nc(-c3ccc(NC(=O)Cc4ccccc4OC)cc3)no2)c1	11.1%	69.1%
O=c1[nH]c(SCc2ccc(Cl)cc2)nc2c1CCC2	12.6%	78.5%
CCCn1ncc(CN2CCCC(C(=O)c3cccc(OC(C)C)c3)C2)c1C (stereo not given)	1.55%	79.4%
Cc1cc(C)nc(-n2nc(C)c(Sc3ccc(F)cc3)c2N)n1	13.4%	79.4%
CC[C@H]1CN2CCc3cc(OC)c(OC)cc3[C@@H]2C[C@@H]1C[C@H]1NCCc2cc(OC)c(OC)cc21	45.4%	89.3%
Cc1cc(C(=O)CN2C(=O)CCC2=O)c(C)n1Cc1ccccc1	34.5%	72.6%
CC(=O)c1ccc(N2CCN(S(=O)(=O)c3ccc4c(c3)CC(=O)N4)CC2)cc1	49%	69.8%
CN(C)c1oc(-c2ccc(OCc3ccc(Cl)cc3)cc2)nc1C#N	35.5%	67.2%
O=C(COc1ccccc1Br)NCCc1nc2ccccc2[nH]1	0.04%	79.6%
C=CCn1c(SCC(=O)c2ccc(O)c(O)c2)nnc1-c1ccccc1OC	30.6%	65%
c1ccc(CC2CCN(c3ncnc4sccc34)CC2)cc1	9.66%	54.9%
N#Cc1ccccc1CSc1nc2ncc(Br)cc2[nH]1	29.7%	79.3%
CCOC(=O)C(C)Oc1cccc2c(=O)n(CC(=O)Nc3ccc4c(c3)OCCO4)ccc12 (stereo not given)	68.7%	75.6%
O=C(c1ccccn1)N(Cc1cccs1)C1(C(=O)NC2CCCCC2)CCCCC1	0.01%	70.6%
O=c1oc2c(O)c(O)cc3c(=O)oc4c(O)c(O)cc1c4c23	73.1%	93.1%
CN(C)c1nc(N)nc(CSc2nnnn2-c2cccc3ccccc23)n1	0.13%	77.6%
CS(=O)(=O)c1ccc(C(=O)OCC(=O)NC23CC4CC(CC(C4)C2)C3)cc1[N+](=O)[O-]	5.75%	81%

SMILES	percent remaining with NADPH	percent remaining without NADPH
Cc1cccc(-n2cnc3cc(C(=O)N4CCCCC4)ccc32)c1	37.9%	70%
CCCc1nc2c(=O)n(C)c(=O)nc-2n(C)n1	65.6%	61.5%
c1ccc2c(Nc3nnc(-c4ccncc4)s3)cccc2c1	8.76%	72.1%
COc1ccccc1N(/N=C1\Sc2ccccc2C1=O)C(C)=O	0.32%	68.5%
O=C(O)c1cccnc1SCCc1ccccc1	61.4%	74.9%
O=C(O)c1ccc(N2C(=O)/C(=C/c3ccc(-c4ccc([N+](=O)[O-])cc4)o3)C=C2c2ccccc2)cc1	67.9%	74.3%
Cc1cc(C)n(-c2nc(NCCCO)c3c4c(sc3n2)CCCC4)n1	0.45%	74%
O=C1C2CC=CCC2C(=O)N1c1n[nH]c(-c2ccccc2)n1 (stereo not given)	66.9%	71%
NC(=O)C1CCN(c2nc(-c3ccc(Br)cc3)cs2)CC1	56.9%	62%
CCOc1ccc(-c2nc(-c3ccncc3)no2)cc1OCC	25.1%	70.3%
CCCc1cc(C(=O)N(C2CCCCC2)C2CCCCC2)no1	5.27%	57.6%
COc1ccc(Sc2ccc(NC(=O)c3ccccc3Cl)cc2C#N)cc1	27.3%	64.4%
COc1ccc(C2c3c(ncn(CCN4CCOCC4)c3=N)Oc3ccc4ccccc4c32)cc1OC (stereo not given)	7.15%	87.2%
COc1ccc(OC)c(S(=O)(=O)Nc2cnc3ccccc3c2)c1	25.9%	71.5%
Cc1cc(-c2nnc3n2CCCCC3)c(C)n1-c1ccccc1	25.2%	74.8%
O=C(COC(=O)C12CC3CC(CC(C3)C1)C2)NCc1ccco1	84.8%	100%
COc1ccc(C2CC(c3ccccc3)=NN2c2ccc(S(N)(=O)=O)cc2)cc1 (stereo not given)	59.6%	70%

More lines, now with the values ahead:

percent remaining with NADPH	percent remaining without NADPH	SMILES
48.3%	81.5%	CCCOc1ccc(-c2nc(OC)c3ccccc3n2)cc1
0.99%	73.4%	Cc1ccnc(NC(=O)CCCOc2cc(=O)n(C)c3ccccc23)c1
75.8%	74.2%	O=C(O)CCC(NS(=O)(=O)c1ccc(-c2ccccc2)cc1)C(=O)O (stereo not given)
21%	79.3%	Cc1ccc(S(=O)(=O)n2c(N)nc3ccccc32)cc1
2.07%	75.9%	Cc1ccc(C)c(NS(=O)(=O)c2cc(C(=O)Nc3ccccc3-c3ccccc3)ccc2Cl)c1
0.03%	73.8%	Cc1ccc(N2CCN(S(=O)(=O)N3CCCCC3)CC2)c(C)c1
46%	71.2%	CCCC(=O)Nc1cccc(NC(=O)c2ccccc2Br)c1
30.9%	58%	Cc1ccccc1N1CCN(c2ncnc3c2cnn3Cc2ccc(Cl)cc2)CC1
47.2%	78.5%	O=C(CSc1cccc2cccnc12)N1CCCC1
62.1%	63%	O=C1NCCCc2c1oc1ccc(O)cc21
0.21%	70.7%	COc1ccc(CNCc2cccc3ccccc23)cc1
20.3%	75.6%	CCc1oc2ccccc2c1C(=O)c1cc(Br)c(O)c(Br)c1
41.4%	68.6%	COc1ccc(CSc2nc(C)cc(=O)[nH]2)cc1
35.8%	66.7%	Cc1ccc(C)c(OCCn2cc(C(=O)O)c3ccccc32)c1
6.36%	66.3%	Cc1ccc(NS(=O)(=O)c2ccc3c(c2)CCC(=O)N3)cc1C
0.01%	80.3%	Cc1ccc(S(=O)(=O)NCc2ccc(C(=O)NCCN(Cc3ccccc3)C(C)C)cc2)cc1
13.5%	75.6%	CCCN(CCC)CCNC(=O)C1CCN(Cc2nc(-c3ccc(Cl)cc3)oc2C)CC1
11.2%	78.1%	O=C1CCCC2=C1C1(CCCC1)N=C(Nc1nc3ccccc3o1)N2
67.3%	70%	O=C(O)c1ccccc1OCc1ccccc1Br
0.08%	69.4%	Cc1ccc(S(=O)(=O)C(c2ccccc2)c2c(C)noc2C)cc1 (stereo not given)
